# How the values were obtained:
# IL-6 protein = assay: ELISA, IL-6 protein after CCI injury; format: in vivo, rat; settings: single-dose 30 mg kg^-1 i.p.; ipsilateral cortex, 1 day post-injury; P<0.01
# Method: A previously described CCI injury procedure was utilized (Chen et al., 2003). Male Sprague-Dawley rats, which have body weight of 250-300 g, were anaesthetized with sodium pentobarbital (i.p.; 50 mgkg^−1; Rhone Merieux, Harlow, UK) and placed in a stereotaxic frame. A 5-mm craniotomy was performed over the left parietal cortex, centered on the coronal suture and 3 mm lateral to the sagittal suture. Considerable care was taken to avoid injury to the underlying dura. Injury was made using a pneumatic piston with a rounded metal tip (2.5 mm diameter) that was angled 22.5° C. to the vertical so that the tip was perpendicular with the brain surface at the centre of the craniotomy. A velocity of 4 ms^−1 and a deformation depth 2 mm below the dura were used. […] Body temperature was monitored throughout the surgery by a rectal probe; temperature was maintained at 37.0±0.5° C. using a heated pad. […]
# Single-dose baicalein (30 mg kg^−1) or a corresponding volume of vehicle was administered i.p. immediately following injury. […] Testing after injury was as follows: (1) real-time quantitative RT-PCR analysis for TNF-α, IL-1β and IL-6 mRNA expression at 6 h post-injury (n=7 for each group); (2) FluoroJade B (FJB) staining, TNF-α, IL-1β and IL-6 immunohistochemistry, as well as ELISA at 24 h post-injury to assess degenerative neurons and to determine cytokine expression (n=7 for each group). […]
# [1] = test system: degenerating neurons (FJB-positive cells) in cortical contusion margin; assay: Neuronal degeneration, FluoroJade B (FJB) staining; format: in vivo, rat; settings: single-dose 30 mg kg^-1 i.p., 1 day post-injury, P<0.05
# Method: A previously described CCI injury procedure was utilized (Chen et al., 2003). Male Sprague-Dawley rats, which have body weight of 250-300 g, were anaesthetized with sodium pentobarbital (i.p.; 50 mgkg^−1; Rhone Merieux, Harlow, UK) and placed in a stereotaxic frame. A 5-mm craniotomy was performed over the left parietal cortex, centered on the coronal suture and 3 mm lateral to the sagittal suture. Considerable care was taken to avoid injury to the underlying dura. Injury was made using a pneumatic piston with a rounded metal tip (2.5 mm diameter) that was angled 22.5° C. to the vertical so that the tip was perpendicular with the brain surface at the centre of the craniotomy. A velocity of 4 ms^−1 and a deformation depth 2 mm below the dura were used. The bone flap was immediately replaced and sealed, and the scalp was closed with sutures. Body temperature was monitored throughout the surgery by a rectal probe; temperature was maintained at 37.0±0.5° C. using a heated pad. […] Testing after injury was as follows: (1) real-time quantitative RT-PCR analysis for TNF-α, IL-1β and IL-6 mRNA expression at 6 h post-injury (n=7 for each group); (2) FluoroJade B (FJB) staining, TNF-α, IL-1β and IL-6 immunohistochemistry, as well as ELISA at 24 h post-injury to assess degenerative neurons and to determine cytokine expression (n=7 for each group). […]
structure (smiles),measurement,setting,value
O=c1cc(-c2ccccc2)oc2cc(O)c(O)c(O)c12 [baicalein],"IL-6 protein concentration, % of concentration in vehicle-treated rats",IL-6 protein,67%
same,reduction of the number of FJB-positive cells versus vehicle,[1],31%
